According to PMC4726260, “Combined ligand-observe ^19F and protein-observe ^15N,^1H-HSQC NMR suggests phenylalanine as the key Δ-somatostatin residue recognized by human protein disulfide isomerase” (Scientific Reports, 2016):
Non-standard residues stand in square brackets, D forms with d. Residues, ends and D or L forms follow the SMILES beside them. No end group written: not given here. Phe(4-F) = N[C@@H](Cc1ccc(F)cc1)C(=O)O

T1: hPDI b’x (Homo sapiens, UniProt P07237)
T1 construct: There is also a short 19 amino acid x-linker region between the b’ and a’ domains; made in house; host or cells: E. coli
T1 sequence (P07237 230-368 limits assumed): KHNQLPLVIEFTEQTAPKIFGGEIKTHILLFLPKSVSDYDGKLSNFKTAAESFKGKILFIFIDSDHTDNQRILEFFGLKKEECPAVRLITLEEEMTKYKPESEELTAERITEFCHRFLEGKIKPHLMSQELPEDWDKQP


What was measured:
hPDI b’x [1] = target: T1, hPDI b’x; assay: Protein-observe 15N,1H-HSQC NMR titration (chemical shift perturbation, Kd); type: binding; conditions: for Kd: read-out: Dissociation constant (Kd), PROTEIN 15N/1H Tracked; for Binding classification from 15N,1H-HSQC titration series: 310 K, pH 7.0, resonance shifts throughout the titration
Description: (§1) NMR titrations were carried out by collecting ^19F NMR spectra (at a constant peptide concentration of 0.15 mM) and ^15N,^1H-HSQC spectra (at a constant protein concentration of 0.25 mM). This provided binding perspectives from both peptide and protein. ^19F NMR data provided precise curve fits of equation (1) with Kd values in agreement with those obtained by ^15N NMR (Table 1). […] Triple fluorinated peptide spectra are shown in Fig. 4 with example Kd graphs plotted using chemical shift change against b’x concentration (see Supplementary Information SV for single fluorinated peptide ^19F spectra).
(§2) All spectra were collected using a 4-channel, 5-amplifier Bruker Avance III 14.1 T (600 MHz ^1H) NMR spectrometer equipped with a 5 mm QCI-F cryoprobe. ^15N,^1H-HSQC spectra were acquired over 45 min on samples containing 0.25 mM b’x and varying peptide concentrations. Each ^19F 1D spectrum was acquired over 60 min on samples of 0.15 mM Δ-som with varying protein concentration. Ratios of the variable:static components in each experiment were 1:4, 1:2, 1:1, 1.5:1, 2:1 and 2.5:1. All samples were run at 310 K in 20 mM sodium phosphate buffer (pH 7.0) containing 50 mM NaCl, 5% D6-DMSO, 5% ^2H2O and 0.05% sodium azide. 1D NMR data were processed using Bruker Topspin software and referenced using the position of trifluoroacetic acid (−76.55 ppm). 2D data were processed using NMRPipe[31] and analysed using the CCPN Analysis software package.
Amide chemical shifts were calculated in Hz as √[(0.6Δ^1H)^2 + (Δ^15N)^2]. Dissociation constants (Kd) for each shifting peak were calculated by plotting the chemical shift perturbation (Hz) against ligand concentration (mM) and fitting the curve to the equation: […]
(§3) where Δobs is the observed chemical shift perturbation, Δmax the maximum chemical shift perturbation and [P] and [L] the protein and ligand concentrations respectively. This equation was used to fit both ^15N and ^19F NMR data using KaleidaGraph 4.0 (Synergy Software). Standard errors from the Levenberg-Marquardt fitting routine were taken as the uncertainties. We determined Kd from ^15N,^1H HSQC NMR data using two approaches: First, by simultaneous fitting all shifts which are averaged to create a single plot, which is considered an accurate method of Kd determination. Second, we tracked and fitted each peak individually to the equation above and averaged all results and errors across all fits. […] This hPDI system creates Kd values with shallow binding curve where errors where average chemical shifts reduce fitting accuracy and individual fitting produces higher resoltuion. Therefore, we used Kd values from the averaged individual fit method within this paper to report smaller errors.

hPDI b’x [2] = target: T1, hPDI b’x; assay: Ligand-observe 19F NMR titration (chemical shift change vs b’x concentration, Kd); type: binding; conditions: 310 K
Description: as §1, §2, §3

[3] = target: Δ-somatostatin (Homo sapiens) (UniProt P61278); assay: 19F NMR; conditions: cited from earlier work
[4] = target: human protein disulphide isomerase (hPDI) b'x fragment (human) (UniProt P07237); assay: SEC; gel filtration elution profile of 15N labelled b'x (step of the purification); absorbance at 280 nm
[5] = target: human protein disulphide isomerase (hPDI) fragment b'x (human); assay: NMR titration; protein-observed 15N,1H-HSQC; 0.25 mM 15N b'x constant, peptide titrated (ratios 1:4 to 2.5:1); 310 K; 20 mM sodium phosphate pH 7.0, 50 mM NaCl, 5% D6-DMSO, 5% 2H2O, 0.05% sodium azide; Kd is the average of the fits of the individual shifting peaks
[6] = 15N,1H-HSQC, constant 0.25 mM 15N b’x, varying peptide (ratios 1:4 to 2.5:1), 310 K (37 °C), 20 mM sodium phosphate pH 7.0, 50 mM NaCl, 5% D6-DMSO, average of individual residue fits, ± standard error of Levenberg-Marquardt fit
[7] = 19F 1D NMR, constant 0.15 mM singly fluorinated peptide, varying b’x, 20 mM sodium phosphate pH 7.0, 50 mM NaCl, 5% D6-DMSO, ± standard error of fit, read-out: Dissociation constant (Kd), LIGAND 19F Tracked (Single-F)

Row | Molecule | Kd (hPDI b’x [1]; [6]) | Kd [5] | other results
1 | AGSKNAFWKTATSS [Phe6,11 → Ala Δ-som] | 587 ± 174 µM |  | 
2 | RERQIKKQTALVELV [helix-28 from human serum albumin, helix-28 from human serum albumin (…), reference compound] |  |  | Binding classification from 15N,1H-HSQC titration series (hPDI b’x [1]; 0.25 mM 15N b’x): non-binding
3 | C[C@H](N)C(=O)NCC(=O)N[C@@H](CO)C(=O)N[C@@H](CCCCN)C(=O)N[C@@H](CC(N)=O)C(=O)N[C@@H](Cc1ccccc1)C(=O)N[C@@H](Cc1ccccc1)C(=O)N[C@@H](Cc1c[nH]c2ccccc12)C(=O)N[C@@H](CCCCN)C(=O)N[C@H](C(=O)N[C@@H](Cc1ccc(F)cc1)C(=O)N[C@H](C(=O)N[C@@H](CO)C(=O)N[C@@H](CO)C(=O)O)[C@@H](C)O)[C@@H](C)O [F3 Δ-som] (H-AGSKNFFWKT[Phe(4-F)]TSS-OH) | 84 ± 53 µM |  | Kd (hPDI b’x [2]; [7]): 97 ± 21 µM
4 | AGSKNAAWKTFTSS [Phe6,7 → Ala Δ-som] | 242 ± 177 µM |  | 
5 | C[C@H](N)C(=O)NCC(=O)N[C@@H](CO)C(=O)N[C@@H](CCCCN)C(=O)N[C@@H](CC(N)=O)C(=O)N[C@@H](Cc1ccccc1)C(=O)N[C@@H](Cc1ccc(F)cc1)C(=O)N[C@@H](Cc1c[nH]c2ccccc12)C(=O)N[C@@H](CCCCN)C(=O)N[C@H](C(=O)N[C@@H](Cc1ccccc1)C(=O)N[C@H](C(=O)N[C@@H](CO)C(=O)N[C@@H](CO)C(=O)O)[C@@H](C)O)[C@@H](C)O [F2 Δ-som] (H-AGSKNF[Phe(4-F)]WKTFTSS-OH) | 51 ± 30 µM |  | Kd (hPDI b’x [2]; [7]): 27 ± 3 µM
6 | PDI b'x (from UniProt P07237) |  |  | Kd [3]: 23 µM
7 | human protein disulphide isomerase (hPDI) b'x fragment (from UniProt P07237 18-508) (domain or fragment) |  |  | stoichiometry N [4]: 2
8 | AGSKNAAWKTATSS [Phe6,7,11 → Ala Δ-som, triple Phe → Ala peptide of Δ-som] |  |  | Binding classification from 15N,1H-HSQC titration series (hPDI b’x [1]; 0.25 mM 15N b’x): non-binding; Chemical shifts identified at the end point of the titration (hPDI b’x [1]; 15N,1H-HSQC, 0.25 mM 15N b’x, shifts did not map to the ligand binding site): < 0.01 ppm; Dissociation constant (Kd), PROTEIN 15N/1H Tracked (hPDI b’x [1]; [6]): Non binding
9 | AGSKNAFWKTFTSS [Phe6 → Ala Δ-som] | 199 ± 100 µM |  | 
10 | C[C@H](N)C(=O)NCC(=O)N[C@@H](CO)C(=O)N[C@@H](CCCCN)C(=O)N[C@@H](CC(N)=O)C(=O)N[C@@H](Cc1ccc(F)cc1)C(=O)N[C@@H](Cc1ccccc1)C(=O)N[C@@H](Cc1c[nH]c2ccccc12)C(=O)N[C@@H](CCCCN)C(=O)N[C@H](C(=O)N[C@@H](Cc1ccccc1)C(=O)N[C@H](C(=O)N[C@@H](CO)C(=O)N[C@@H](CO)C(=O)O)[C@@H](C)O)[C@@H](C)O [F1 Δ-som] (H-AGSKN[Phe(4-F)]FWKTFTSS-OH) | 61 ± 47 µM |  | Kd (hPDI b’x [2]; [7]): 109 ± 13 µM
11 | C[C@H](N)C(=O)NCC(=O)N[C@@H](CO)C(=O)N[C@@H](CCCCN)C(=O)N[C@@H](CC(N)=O)C(=O)N[C@@H](Cc1ccc(F)cc1)C(=O)N[C@@H](Cc1ccc(F)cc1)C(=O)N[C@@H](Cc1c[nH]c2ccccc12)C(=O)N[C@@H](CCCCN)C(=O)N[C@H](C(=O)N[C@@H](Cc1ccc(F)cc1)C(=O)N[C@H](C(=O)N[C@@H](CO)C(=O)N[C@@H](CO)C(=O)O)[C@@H](C)O)[C@@H](C)O [F1,2,3 Δ-som] (H-AGSKN[Phe(4-F)][Phe(4-F)]WKT[Phe(4-F)]TSS-OH) | 48 ± 35 µM |  | Kd (hPDI b’x [2]; 19F 1D NMR, F1 (Phe6) resonance of triple fluorinated peptide, 0.15 mM peptide, varying b’x, pH 7.0, ± standard error of fit, read-out: Dissociation constant (Kd), LIGAND 19F Tracked (Triple-F), F1 peak): 108 ± 15 µM; Kd (hPDI b’x [2]; 19F 1D NMR, F2 (Phe7) resonance of triple fluorinated peptide, 0.15 mM peptide, varying b’x, pH 7.0, ± standard error of fit, read-out: Dissociation constant (Kd), LIGAND 19F Tracked (Triple-F), F2 peak): 33 ± 11 µM; Kd (hPDI b’x [2]; 19F 1D NMR, F3 (Phe11) resonance of triple fluorinated peptide, 0.15 mM peptide, varying b’x, pH 7.0, ± standard error of fit, read-out: Dissociation constant (Kd), LIGAND 19F Tracked (Triple-F), F3 peak): 45 ± 14 µM; Kd (hPDI b’x [2]; mean of the Kd from each monitored 19F resonance in the triple fluorinated peptide, 0.15 mM peptide, pH 7.0, read-out: Dissociation constant (Kd), LIGAND 19F Tracked (Triple-F), mean Kd): 62 ± 13 µM
12 | AGSKNAAWKTFTSS [Phe6,7 → Ala Δ-som] |  | 242 µM | 
13 | AGSKN[Phe(4-F)]FWKTFTSS [F1 Δ-som] |  | 61 µM | 
14 | AGSKNFFWKT[Phe(4-F)]TSS [F3 Δ-som] |  | 84 µM | 
15 | AGSKNAFWKTFTSS [Phe6 → Ala Δ-som] |  | 199 µM | 
16 | AGSKN[Phe(4-F)][Phe(4-F)]WKT[Phe(4-F)]TSS [F1,2,3 Δ-som] |  | 48 µM | 
17 | AGSKNF[Phe(4-F)]WKTFTSS [F2 Δ-som] |  | 51 µM | 
18 | AGSKNAFWKTATSS [Phe6,11 → Ala Δ-som] |  | 587 µM | 

Continued, in another order:

Row | Kd (hPDI b’x [1]; [6]) | Kd [5] | Molecule | other results
19 | 261 ± 101 µM |  | AGSKNFFWKTATSS [Phe11 → Ala Δ-som] | 
20 | 412 ± 219 µM |  | AGSKNFAWKTATSS [Phe7,11 → Ala Δ-som] | 
21 | 123 ± 96 µM |  | AGSKNFAWKTFTSS [Phe7 → Ala Δ-som] | 
22 | 103 ± 47 µM |  | AGSKNFFWKTFTSS [Δ-som, Δ-somatostatin] | 
23 |  | 103 µM | AGSKNFFWKTFTSS [Δ-somatostatin] | 
24 |  | 412 µM | AGSKNFAWKTATSS [Phe7,11 → Ala Δ-som] | 
25 |  | 261 µM | AGSKNFFWKTATSS [Phe11 → Ala Δ-som] | 
26 |  | 123 µM | AGSKNFAWKTFTSS [Phe7 → Ala Δ-som] | 
